Measurements taken from article PMC10740580, “Benzothiazole-Phthalimide Hybrids as Anti-Breast Cancer and Antimicrobial Agents” (Antibiotics, 2023).
Converted amounts (≈) assume the structure as drawn.

How the values were obtained:
[1] = test system: Staphylococcus aureus 43300; assay: Broth microdilution, S. aureus ATCC 43300; assay type: cell-based; details: 24 h, 37 °C, methicillin-resistant
Source text: (§1) Compounds 3a–h were examined in accordance with the Clinical Laboratory Standards Institute (CLSI) recommendations, by means of the broth microdilution method, against gram-positive bacteria (Staphylococcus aureus 25923, Staphylococcus aureus 29213, Staphylococcus aureus 43300, Enterococcus faecalis 29212) and gram-negative bacteria (Escherichia coli 25922, Klebsiella pneumoniae 13883, Pseudomonas aeruginosa 27853) belonging to the ATCC collection, using levofloxacin as a reference drug. Table 3 lists the results, expressed as MIC (µg/mL). […] The lack of activity observed for compound 3d could be conceivably due to its poor solubility in the culture medium containing the inoculum.
(§2) Following the recommendations of the CLSI (Clinical and Laboratory Standards Institute, 2012), the broth microdilution method was used to determine the in vitro minimum inhibitory concentrations (MICs, µg/mL).. The concentration of the investigated compounds was set to its highest value to create stock solutions. Then, the stock solutions were diluted 1:10 with Cation-Adjusted Mueller Hinton Broth (Oxoid, Milan, Italy). After that, a series of concentrations from 512 µg/mL to […] were obtained in the wells by performing two-fold serial dilutions in the appropriate test medium. The diluent used to create the stock solution was 100% DMSO. We used the following bacterial strains from the ATCC collection that were available as freeze-dried discs: gram-positive strains such as S. aureus ATCC 25923, 29213, and 43300, and E. faecalis ATCC 29212, and gram-negative ones such as E. coli ATCC 25922, K. pneuomoniae ATCC 13883, and P. aeruginosa ATCC 27853. To preserve the purity of cultures and to allow their reproducibility, cryovials of all microbial strains were set up in the medium and stored at −80 °C. Mueller Hinton Broth (MHB) was used to prepare pre-cultures of each bacterial strain, which were then incubated for 3–5 h at 37 °C. In accordance with CLSI procedure M7-A9, the turbidity of the bacterial cell suspension was calibrated to 0.5 McFarland Standard using a spectrophotometric approach (OD625 nm 0.08–0.10). The standardized suspension was then further diluted (1:100) with MHB to reach 1–2 × 10^6 CFU/mL. A 200 µL aliquot of the final inoculum was inserted into each well. As a control for growth, several wells containing only inoculated broth were prepared. The plates were incubated at 37 °C for 24 h, and the MIC values were calculated as the lowest concentration of compounds at which there was no optically detectable bacteria growth. Each experiment was carried out in duplicate and repeated twice to determine the MICs. Levofloxacin served as the study’s standard reference antibiotic. Additionally, the antibacterial activity of DMSO alone (used as a diluent for the investigated compounds) was examined; therefore, volumes of this solvent with a concentration of less than 5% were utilized throughout the experimentation.

[2] = test system: Enterococcus faecalis 29212; assay: Broth microdilution, E. faecalis ATCC 29212; assay type: cell-based; details: 24 h, 37 °C, read-out: MIC E.f. 29212
Source text: as §1, §2

Escherichia coli 25922 = assay: Broth microdilution, E. coli ATCC 25922; assay type: cell-based; details: 24 h, 37 °C
Source text: as §1, §2

[3] = test system: Klebsiella pneumoniae 13883; assay: Broth microdilution, K. pneumoniae ATCC 13883; assay type: cell-based; details: 24 h, 37 °C, read-out: MIC K.p. 13883
Source text: as §1, §2

[4] = test system: Pseudomonas aeruginosa 27853; assay: Broth microdilution, P. aeruginosa ATCC 27853; assay type: cell-based; details: 24 h, 37 °C
Source text: as §1, §2

[5] = test system: Candida parapsilosis 22019; assay: Antifungal microdilution, C. parapsilosis ATCC 22019; assay type: cell-based; details: microdilution CLSI M27-A3, 48 h, 37 °C, read-out: MIC C.p. 22019
Procedure: In accordance with CLSI guidelines, compounds 3a–h were tested against a variety of fungal strains (Candida albicans 10231, Candida albicans 90028, Candida glabrata 15126, and Candida parapsilosis 22019) belonging to the ATCC collection. Amphotericin B was utilized as a reference drug. A similar trend of results, or even better than that obtained against bacteria, was assessed against fungal strains. […] Also, in this case, compound 3h emerged as the best of the series, with MICs of 16 μg/mL against Candida glabrata and Candida parapsilosis strains and 32 μg/mL against Candida albicans strains.
A microdilution technique described by the Clinical and Laboratory Standards Institute (CLSI, M27-A3) was used to assess the antifungal activity. The following fungal strains, belonging to the ATCC collection and available as freeze-dried discs, were used: C. albicans ATCC 10231, C. albicans ATCC 90028, C. glabrata ATCC 15126, and C. parapsilosis ATCC 22019. Stock solutions were prepared and preserved with purity as previously described for the antibacterial studies. Each yeast strain’s pre-cultures were made in Sabouraud broth (SAB) and allowed to grow until they stopped at 37 °C. By using a spectrophotometric technique (530 nm, range 0.12–0.15), the turbidity of the yeast stock suspension was calibrated to 0.5 McFarland Standard. Next, the standardized suspension was diluted first at 1:50 with SAB and then at 1:20 in the same medium to have […]. A total of 100 µL of inoculum was seeded into each well. As a control for growth, several wells containing only inoculated broth were prepared. The plates were incubated for 48 h at 37 °C, and the MIC values were calculated as the final well with no fungal growth. […] MIC values were observed based on the absence of fungal growth in the final well. The MICs were calculated by conducting the antifungal test three times in duplicate. As a control, amphotericin B was used.

MIC [1] | MIC [2] | MIC (Escherichia coli 25922) | MIC [3] | MIC [4] | MIC [5] | melting point | Compound
64 µg/mL (≈ 228 µM) | 64 µg/mL (≈ 228 µM) | 64 µg/mL (≈ 228 µM) | 128 µg/mL (≈ 457 µM) | 64 µg/mL (≈ 228 µM) | 32 µg/mL (≈ 114 µM) | 249 to 250 °C | O=C1c2ccccc2C(=O)N1c1nc2ccccc2s1 [3a, 2-(1,3-benzothiazol-2-yl)-1H-isoindole-1,3(2H)-dione]
64 µg/mL (≈ 215 µM) | 64 µg/mL (≈ 215 µM) | 64 µg/mL (≈ 215 µM) | 128 µg/mL (≈ 429 µM) | 64 µg/mL (≈ 215 µM) | 32 µg/mL (≈ 107 µM) | 234 to 235 °C | O=C1c2ccccc2C(=O)N1c1nc2ccc(F)cc2s1 [3b, 2-(6-Fluoro-1,3-benzothiazol-2-yl)-1H-isoindole-1,3(2H)-dione]
64 µg/mL (≈ 184 µM) | 64 µg/mL (≈ 184 µM) | 128 µg/mL (≈ 367 µM) | 128 µg/mL (≈ 367 µM) | 128 µg/mL (≈ 367 µM) | 64 µg/mL (≈ 184 µM) | – | O=C1c2ccccc2C(=O)N1c1nc2ccc(C(F)(F)F)cc2s1 [3c, 2-[6-Trifluoromethyl-1,3-benzothiazol-2-yl]-1H-isoindole-1,3(2H)-dione]
> 512 µg/mL | > 512 µg/mL | > 512 µg/mL | > 512 µg/mL | > 512 µg/mL | > 512 µg/mL | > 250 °C | Cc1ccc2nc(N3C(=O)c4ccccc4C3=O)sc2c1 [3d, 2-[6-Methyl-1,3-benzothiazol-2-yl]-1H-isoindole-1,3(2H)-dione]
32 µg/mL (≈ 103 µM) | 64 µg/mL (≈ 206 µM) | 64 µg/mL (≈ 206 µM) | 64 µg/mL (≈ 206 µM) | 64 µg/mL (≈ 206 µM) | 32 µg/mL (≈ 103 µM) | 227 to 229 °C | COc1ccc2nc(N3C(=O)c4ccccc4C3=O)sc2c1 [3e, 2-[6-Methoxy-1,3-benzothiazol-2-yl]-1H-isoindole-1,3(2H)-dione]

The remaining lines, values behind:

Compound | MIC [1] | MIC [2] | MIC (Escherichia coli 25922) | MIC [3] | MIC [4] | MIC [5] | melting point
COc1cc2nc(N3C(=O)c4ccccc4C3=O)sc2cc1OC [3f, 2-[5,6-Dimethoxy-1,3-benzothiazol-2-yl]-1H-isoindole-1,3(2H)-dione] | 32 µg/mL (≈ 94 µM) | 32 µg/mL (≈ 94 µM) | 32 µg/mL (≈ 94 µM) | 64 µg/mL (≈ 188 µM) | 64 µg/mL (≈ 188 µM) | 32 µg/mL (≈ 94 µM) | > 250 °C
O=C1c2ccccc2C(=O)N1c1nc2ccc(O)cc2s1 [3g, 2-[6-Hydroxy-1,3-benzothiazol-2-yl]-1H-isoindole-1,3(2H)-dione] | 32 µg/mL (≈ 108 µM) | 32 µg/mL (≈ 108 µM) | 64 µg/mL (≈ 216 µM) | 64 µg/mL (≈ 216 µM) | 64 µg/mL (≈ 216 µM) | 32 µg/mL (≈ 108 µM) | > 250 °C
O=C1c2ccccc2C(=O)N1c1nc2ccc(Oc3ccccc3)cc2s1 [3h, 2-[6-Phenoxy-1,3-benzothiazol-2-yl]-1H-isoindole-1,3(2H)-dione] | 32 µg/mL (≈ 85.9 µM) | 32 µg/mL (≈ 85.9 µM) | 32 µg/mL (≈ 85.9 µM) | 32 µg/mL (≈ 85.9 µM) | 32 µg/mL (≈ 85.9 µM) | 16 µg/mL (≈ 43 µM) | –
